Data published in paper PMC7608467 (Acta Pharmacologica Sinica, 2020).

Legend:
human RXFP4 (hRXFP4) [1] = biological target: T1, human RXFP4 (hRXFP4) (Homo sapiens, UniProt Q8TDU9); experiment: inhibition of forskolin-stimulated cAMP accumulation, TR-FRET; assay type: cell-based; settings: agonist; 500 nM forskolin, 500 uM IBMX, 40 min, RT
mouse RXFP4 (mRXFP4) = biological target: T2, mouse RXFP4 (mRXFP4) (Mus musculus, UniProt Q7TQP4); experiment: as above; assay type: cell-based; settings: agonist; 500 nM forskolin, 500 uM IBMX, 40 min, RT
T2 sequence (Q7TQP4 1-414): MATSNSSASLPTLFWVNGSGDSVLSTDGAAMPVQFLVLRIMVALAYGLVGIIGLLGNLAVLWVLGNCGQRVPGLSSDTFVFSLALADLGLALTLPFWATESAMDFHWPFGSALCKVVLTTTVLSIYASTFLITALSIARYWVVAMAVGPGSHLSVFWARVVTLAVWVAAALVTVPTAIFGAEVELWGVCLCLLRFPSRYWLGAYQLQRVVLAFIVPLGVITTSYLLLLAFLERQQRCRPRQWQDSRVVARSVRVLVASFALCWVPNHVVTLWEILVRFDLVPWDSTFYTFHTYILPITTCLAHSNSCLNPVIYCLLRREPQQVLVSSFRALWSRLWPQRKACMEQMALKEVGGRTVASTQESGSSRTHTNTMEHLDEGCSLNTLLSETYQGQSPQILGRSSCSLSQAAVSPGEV

human RXFP4 (hRXFP4) [2] = biological target: T1, human RXFP4 (hRXFP4); experiment: Eu-mINSL5 competition binding, time-resolved fluorescence, CHO-RXFP4 cells; assay type: cell-based; settings: n = 3; one-site fit; competitive with Eu-labelled INSL5
[3] = biological target: human relaxin/insulin-like family peptide receptor 4 (RXFP4) on CHO-K1 cells (human) (UniProt Q8TDU9)
Chain of human relaxin/insulin-like family peptide receptor 4 (RXFP4) on CHO-K1 cells (human) (Q8TDU9 whole entry): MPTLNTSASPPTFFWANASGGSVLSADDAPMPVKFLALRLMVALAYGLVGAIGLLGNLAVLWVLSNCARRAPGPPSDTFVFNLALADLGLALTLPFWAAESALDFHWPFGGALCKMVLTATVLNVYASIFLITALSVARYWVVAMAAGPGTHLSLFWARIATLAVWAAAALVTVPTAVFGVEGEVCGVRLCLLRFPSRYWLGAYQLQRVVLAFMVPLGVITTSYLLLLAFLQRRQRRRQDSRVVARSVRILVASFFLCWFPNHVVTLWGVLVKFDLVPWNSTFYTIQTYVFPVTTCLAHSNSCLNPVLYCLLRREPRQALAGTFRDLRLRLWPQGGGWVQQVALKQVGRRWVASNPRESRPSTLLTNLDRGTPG

T1 sequence (Q8TDU9 whole entry): as above
Chain of Human INSL5 (insulin-like peptide 5) (ligand) (Q9Y5Q6 23-135): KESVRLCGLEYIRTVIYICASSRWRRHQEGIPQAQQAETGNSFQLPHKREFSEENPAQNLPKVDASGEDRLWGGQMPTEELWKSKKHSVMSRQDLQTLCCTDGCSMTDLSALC

| pEC50 (human RXFP4 (hRXFP4) [1]) | pEC50 (mouse RXFP4 (mRXFP4)) | pKi (human RXFP4 (hRXFP4) [2]) | pEC50, inhibition of forskolin-stimulated cAMP production in hRXFP4-CHO cells [3] | Molecule |
| --- | --- | --- | --- | --- |
| 4.76 ± 0.04 -log M | 4.60 ± 0.07 -log M | 4.48 ± 0.09 -log M | – | O=C1CCCC2=C1[C@H](c1ccc(O)cc1)n1nc(-c3ccccc3Cl)nc1N2 [JK1] |
| – | – | – | 8.12 | Human INSL5 (insulin-like peptide 5) (ligand) |
| – | – | – | 7.52 | R3/I5 (ligand) |
